Results: patent US6475536B2, “Pharmaceutical and cosmetic formulations with antimicrobial activity” (Indena S.p.A., priority 1996, dated 2002)
Values after ≈ are worked out from the molar mass of the structure shown.

How the values were obtained:
Assay in all cases: In vitro antimicrobial activity (M.I.C.)
Assay type in all cases: cell-based
Acinetobacter cal. OSMPV = conditions: average values
Protocol: (§1) The first is prepared from Krameria triandra and from Mesua ferrea. The activity, expressed in M.I.C. (minimum inhibitory concentration), was evaluated by normal terms within the art. Moreover, one of ordinary skill in the art with little or no experimentation can optimize the results for a particular antimicrobial compound or mixtures of compounds.

Bacteroides fragilis = conditions: average values
Protocol: as §1

Escherichia coli CNUR 1 = conditions: CNUR1, average values
Protocol: as §1

Propionibacterium acnes = conditions: Cutibacterium acnes, average values
Protocol: as §1

[1] = system: Pseudomonas aeruginosa CNUR 4; conditions: CNUR4, average values
Protocol: as §1

[2] = system: Staphilococcus aureus ATCC6538; conditions: average values
Protocol: as §1

[3] = system: Staphilococcus aureus MPR5; conditions: average values
Protocol: as §1

[4] = system: Staphilococcus epidermis CPHL; conditions: average values
Protocol: as §1

[5] = system: Streptococcus feaecalis LEP Br; conditions: average values
Protocol: as §1

[6] = system: Candida albicans ATCC 10231; conditions: ATCC10231, average values
Protocol: as §1

[7] = system: Trichophyton mentagrophytes 193; conditions: average values
Protocol: as §1

| MIC (Acinetobacter cal. OSMPV) [mg/L] | MIC (Bacteroides fragilis) [mg/L] | MIC (Escherichia coli CNUR 1) [mg/L] | MIC (Propionibacterium acnes) [mg/L] | MIC [1] [mg/L] | MIC [2] [mg/L] | MIC [3] [mg/L] | MIC [4] [mg/L] | MIC [5] [mg/L] | MIC [6] [mg/L] | MIC [7] [mg/L] | SMILES |
| --- | --- | --- | --- | --- | --- | --- | --- | --- | --- | --- | --- |
| 2 (≈ 5.5 µM) | 32 (≈ 88.1 µM) | 0.51 (≈ 1.4 µM) | 32 (≈ 88.1 µM) | 32 (≈ 88.1 µM) | 0.5 (≈ 1.38 µM) | 1 (≈ 2.75 µM) | 1 (≈ 2.75 µM) | 16 (≈ 44 µM) |  |  | CN1CCN(c2c(F)cc3c(=O)c(C(=O)O)cn4c3c2SCC4)CC1 [rufloxacin] |
|  |  |  |  |  |  |  |  |  | 2 (≈ 4.81 µM) | 2 (≈ 4.81 µM) | Clc1ccc(COC(Cn2ccnc2)c2ccc(Cl)cc2Cl)c(Cl)c1 (centres unmarked) [miconazole] |
